This note sets out measurements from ChEMBL document CHEMBL1143555, “Development of low molecular weight HIV-1 protease dimerization inhibitors” (J Med Chem, 2005).

In general, Ki refers to a measure of affinity in units of concentration, obtained from inhibition or displacement. Usually inhibition stands for the relative decrease from the control value, in per cent. A word on the IC50: it is the concentration needed to halve the response being measured. Low readings indicate greater potency, high ones weaker potency.

Molecules are shown by their SMILES.

The first assay has as its target T1, Human immunodeficiency virus type 1 protease (Human immunodeficiency virus 1, UniProt Q72874). Description: Inhibitory concentration against human immunodeficiency virus -1 protease.
`CC[C@H](C)[C@@H](NC(=O)CCCCCCCCCCCCCCC(=O)N(C)[C@H](C(=O)N[C@@H](C(=O)NC(CO)C(N)=O)[C@@H](C)CC)[C@H](C)O)C(=O)N[C@@H](Cc1ccccc1)C(=O)O` (some centres undefined) returned a Ki of 140 µM.

In turn, `CCC(C)[C@H](NC(=O)CCCCCCCCCCCCCCC(=O)N[C@@H](CC(N)=O)C(=O)N[C@@H](CCc1ccccc1)C(=O)O)C(=O)N[C@H](Cc1ccccc1)C(N)=O` (some centres undefined) gave an inhibition constant Ki of 0.268 µM. `CCC(C)[C@@H](NC(=O)[C@@H](NC(=O)CCCCCCCCCCCCCCC(=O)N[C@@H](Cc1ccc(O)c([N+](=O)[O-])c1)C(=O)N[C@@H](Cc1ccccc1)C(=O)O)C(C)O)C(=O)NC(CO)C(N)=O` (some centres undefined) yielded an inhibitory constant (Ki) of 0.102 µM. The same measure, in the same setting: under `CCC(C)[C@@H](NC(=O)[C@@H](NC(=O)CCCCCCCCCCCCCCC(=O)N[C@@H](Cc1ccc([N+](=O)[O-])cc1)C(=O)N[C@@H](Cc1ccccc1)C(=O)O)C(C)O)C(=O)NC(CO)C(N)=O` (some centres undefined) stands 0.103 µM; under `CCC(C)[C@@H](NC(=O)[C@@H](NC(=O)CCCCCCCCCCCCCCC(=O)N[C@@H](C(=O)N[C@@H](Cc1ccccc1)C(=O)O)c1ccc(OCc2ccccc2)cc1)C(C)O)C(=O)NC(CO)C(N)=O` (some centres undefined), 0.11 µM; under `CC[C@H](C)[C@@H](NC(=O)[C@@H](NC(=O)CCCCCCCCCCCCCCC(=O)N[C@H](CC(=O)N[C@@H](Cc1ccccc1)C(=O)O)C(N)=O)[C@H](C)O)C(=O)N[C@@H](Cc1ccccc1)C(=O)N[C@@H](Cc1ccccc1)C(N)=O`, 0.361 µM.

As to `CCC(C)[C@H](NC(=O)CCCCCCCCCCCCCCC(=O)N[C@@H](CC(N)=O)C(=O)NC(Cc1ccc2ccccc2c1)C(=O)O)C(=O)N[C@H](Cc1ccccc1)C(N)=O` (some centres undefined), the affinity, expressed as Ki, was 0.267 µM.

On to `CCC(C)[C@H](NC(=O)CCCCCCCCCCCCCCC(=O)N[C@@H](CC(N)=O)C(=O)NC(CC1CCCCC1)C(=O)O)C(=O)N[C@H](Cc1ccccc1)C(N)=O` (some centres undefined), for which the affinity corresponds to a Ki of 0.285 µM. Still for that read-out and setting: in the case of `CC(C)C[C@H](NC(=O)[C@@H](NC(=O)CCCCCCCCCCCCCCC(=O)N[C@H](CC(=O)N[C@@H](Cc1ccccc1)C(=O)O)C(N)=O)C(C)O)C(=O)N[C@@H](Cc1ccccc1)C(N)=O` (some centres undefined) it was 3 µM. Same read-out and setting: in the case of `CC[C@H](C)[C@@H](NC(=O)[C@H]([C@H](C)O)N(C)C(=O)CCCCCCCCCCCCCCC(=O)N[C@H](Cc1ccc(C#N)cc1)C(=O)N[C@@H](Cc1ccccc1)C(=O)O)C(=O)NC(CO)C(N)=O` (some centres undefined) it was 0.14 µM; in that of `CC[C@H](C)[C@@H](NC(=O)[C@@H](NC(=O)CCCCCCCCCCCCCCC(=O)N[C@H](CC(=O)N[C@@H](Cc1ccccc1)C(=O)O)C(N)=O)C(C)O)C(=O)N[C@@](C)(C(N)=O)c1cccc2ccccc12` (some centres undefined), 0.127 µM; in that of `CC[C@H](C)[C@@H](NC(=O)[C@@H](NC(=O)CCCCCCCCCCCCCCC(=O)N[C@H](CC(=O)N[C@@H](Cc1ccccc1)C(=O)O)C(N)=O)[C@H](C)O)C(=O)N[C@@H](Cc1ccc(C(=O)c2ccccc2)cc1)C(N)=O`, 0.314 µM. The same measure, in the same setting: under `CC[C@H](C)[C@@H](NC(=O)[C@@H](NC(=O)CCCCCCCCCCCCCCC(=O)N[C@H](CC(=O)N[C@@H](Cc1ccccc1)C(=O)O)C(N)=O)[C@H](C)O)C(=O)NC(Cc1ccc([N+](=O)[O-])c(O)c1)C(N)=O` (some centres undefined) stands 0.164 µM; under `CC[C@H](C)[C@@H](NC(=O)[C@@H](NC(=O)CCCCCCCCCCCCCCC(=O)N[C@H](CC(=O)N[C@@H](Cc1ccccc1)C(=O)O)C(N)=O)[C@H](C)O)C(=O)N[C@@H](Cc1ccc(OCc2ccccc2)cc1)C(N)=O`, 0.414 µM; under `CC[C@H](C)[C@@H](NC(=O)[C@H]([C@H](C)O)N(C)C(=O)CCCCCCCCCCCCCCC(=O)Nc1ccccc1C(=O)N[C@@H](Cc1ccccc1)C(=O)O)C(=O)NC(CO)C(N)=O` (some centres undefined), 235 µM. For the molecule `CC[C@H](C)[C@@H](NC(=O)[C@H]([C@H](C)O)N(C)C(=O)CCCCCCCCCCCCCCC(=O)NC(CC(C)C)C(=O)N[C@@H](Cc1ccccc1)C(=O)O)C(=O)NC(CO)C(N)=O` (some centres undefined), the inhibition constant (Ki) is 0.273 µM.

Take `CCC(C)[C@@H](NC(=O)[C@@H](NC(=O)CCCCCCCCCCCCCCC(=O)N[C@H](CC(=O)N[C@@H](Cc1ccccc1)C(=O)O)C(N)=O)C(C)O)C(=O)N[C@@H](Cc1ccccc1)C(N)=O` (some centres undefined): the affinity, expressed as Ki, was 210 µM. Regarding `CC[C@H](C)[C@@H](NC(=O)[C@H]([C@H](C)O)N(C)C(=O)CCCCCCCCCCCCCCC(=O)N[C@@H](C(=O)N[C@@H](Cc1ccccc1)C(=O)O)C(C)C)C(=O)NC(CO)C(N)=O` (some centres undefined), the Ki is 0.202 µM.

Take `CC[C@H](C)[C@@H](NC(=O)[C@H]([C@H](C)O)N(C)C(=O)CCCCCCCCCCCCCCC(=O)N[C@H](CCc1ccccc1)C(=O)N[C@@H](Cc1ccccc1)C(=O)O)C(=O)NC(CO)C(N)=O` (some centres undefined): the affinity corresponds to a Ki of 0.16 µM. On the same count and under the same terms, in the case of `CCC(C)[C@H](NC(=O)CCCCCCCCCCCCCCC(=O)N[C@@H](CC(N)=O)C(=O)N[C@@H](Cc1ccc([N+](=O)[O-])cc1)C(=O)O)C(=O)N[C@H](Cc1ccccc1)C(N)=O` (some centres undefined) it was 0.384 µM; in that of `CC[C@H](C)[C@@H](NC(=O)[C@H]([C@H](C)O)N(C)C(=O)CCCCCCCCCCCCCCC(=O)N[C@H](Cc1ccccc1)C(=O)N[C@@H](Cc1ccccc1)C(=O)O)C(=O)NC(CO)C(N)=O` (some centres undefined), 0.112 µM.

`CCC(C)[C@@H](NC(=O)[C@@H](NC(=O)CCCCCCCCCCCCCCC(=O)N[C@@H](Cc1ccc(F)c(F)c1)C(=O)N[C@@H](Cc1ccccc1)C(=O)O)C(C)O)C(=O)NC(CO)C(N)=O` (some centres undefined) returned a Ki of 0.106 µM. On the same count and under the same terms, in the case of `CCC(C)[C@H](NC(=O)CCCCCCCCCCCCCCC(=O)N[C@@H](CC(N)=O)C(=O)NC(C(=O)O)C1CCCCC1)C(=O)N[C@H](Cc1ccccc1)C(N)=O` (some centres undefined) it was 0.254 µM; in that of `CCC(C)[C@H](NC(=O)CCCCCCCCCCCCCCC(=O)N[C@@H](CC(N)=O)C(=O)N[C@@H](Cc1ccc(C(=O)c2ccccc2)cc1)C(=O)O)C(=O)N[C@H](Cc1ccccc1)C(N)=O` (some centres undefined), 0.223 µM.

As for `CCC(C)[C@@H](NC(=O)C(CCC(C)C)NC(=O)CCCCCCCCCCCCCCC(=O)N[C@H](CC(=O)N[C@@H](Cc1ccccc1)C(=O)O)C(N)=O)C(=O)N[C@@H](Cc1ccccc1)C(N)=O` (some centres undefined), the inhibition constant Ki came out at 502 µM.

The next assay has as its target Human immunodeficiency virus type 1 protease (Human immunodeficiency virus 1) (UniProt Q72874). Description: Percent inhibition of human immunodeficiency virus-1 protease after 1 uM treatment.
With `CC[C@H](C)[C@@H](NC(=O)c1cccc(CNC(=O)CCCCCCCCCCCCCCC(=O)N[C@H](CC(=O)N[C@@H](Cc2ccccc2)C(=O)O)C(N)=O)c1)C(=O)N[C@@H](Cc1ccccc1)C(N)=O`, the inhibition came out at 10%.

For the next assay, the target named is T1, Human immunodeficiency virus type 1 protease. Kind of assay: Inhibitory concentration against human immunodeficiency virus-1 protease.
On to `CC[C@H](C)[C@@H](NC(=O)[C@H]([C@H](C)O)N(C)C(=O)CCCCCCCCCCCCCCC(=O)NC(Cc1ccc(O)cc1)C(=O)N[C@@H](Cc1ccccc1)C(=O)O)C(=O)NC(CO)C(N)=O` (some centres undefined), for which the IC50 was found to be 0.774 µM.

On to `CC[C@H](C)[C@@H](NC(=O)[C@@H](NC(=O)CCCCCCCCCCCCCCC(=O)N[C@H](CC(=O)N[C@@H](Cc1ccccc1)C(=O)O)C(N)=O)[C@H](C)O)C(=O)N[C@H](Cc1ccc(Br)cc1)C(N)=O`, for which the IC50 was 1.7 µM. The molecule `CC[C@H](C)[C@@H](NC(=O)[C@@H](NC(=O)CCCCCCCCCCCCCCC(=O)N[C@H](CC(=O)N[C@@H](Cc1ccccc1)C(=O)O)C(N)=O)[C@H](C)O)C(=O)N[C@H](Cc1ccc(C#N)cc1)C(N)=O` registered an IC50 of 1.4 µM. The same measure, in the same setting: under `CC[C@H](C)[C@@H](NC(=O)[C@@H](NC(=O)CCCCCCCCCCCCCCC(=O)N[C@H](CC(=O)N[C@@H](Cc1ccccc1)C(=O)O)C(N)=O)[C@H](C)O)C(=O)N[C@@H](Cc1ccc(F)c(F)c1)C(N)=O` stands 872 µM. The same measure, in the same setting: under `CCC(C)[C@@H](NC(=O)C(CCc1ccccc1)NC(=O)CCCCCCCCCCCCCCC(=O)N[C@H](CC(=O)N[C@@H](Cc1ccccc1)C(=O)O)C(N)=O)C(=O)N[C@@H](Cc1ccccc1)C(N)=O` (some centres undefined) stands 0.98 µM. On the same count and under the same terms, in the case of `CC[C@H](C)[C@@H](NC(=O)[C@@H](NC(=O)CCCCCCCCCCCCCCC(=O)N[C@H](CC(=O)N[C@@H](Cc1ccccc1)C(=O)O)C(N)=O)[C@H](C)O)C(=O)N1Cc2[nH]c3ccccc3c2CC1C(N)=O` (some centres undefined) it was 3.1 µM; in that of `CC(C)C[C@H](NC(=O)[C@@H](NC(=O)CCCCCCCCCCCCCCC(=O)N[C@H](CC(=O)N[C@@H](Cc1ccccc1)C(=O)O)C(N)=O)C(C)O)C(=O)N[C@@H](Cc1ccccc1)C(N)=O` (some centres undefined), 0.0054 µM. Take `CC[C@H](C)[C@@H](NC(=O)[C@@H](NC(=O)CCCCCCCCCCCCCCC(=O)N[C@H](CC(=O)N[C@@H](Cc1ccccc1)C(=O)O)C(N)=O)[C@H](C)O)C(=O)N[C@@H](Cc1ccc([N+](=O)[O-])cc1)C(N)=O`: 590 µM corresponded to half-maximal inhibition (IC50).

In the case of `CCC(C)[C@@H](NC(=O)[C@@H](NC(=O)CCCCCCCCCCCCCCC(=O)N[C@H](CC(=O)N[C@@H](Cc1ccccc1)C(=O)O)C(N)=O)C(C)O)C(=O)N[C@@H](Cc1ccccc1)C(N)=O` (some centres undefined), the IC50 was determined as 0.0011 µM.

The molecule `CC[C@H](C)[C@@H](NC(=O)[C@@H](NC(=O)CCCCCCCCCCCCCCC(=O)N[C@H](CC(=O)N[C@@H](Cc1ccccc1)C(=O)O)C(N)=O)[C@H](C)O)C(=O)N[C@@H](Cc1cc(I)c(O)c(I)c1)C(N)=O` registered an IC50 of 740 µM. Same read-out and setting: in the case of `CC[C@H](C)[C@@H](NC(=O)[C@@H](NC(=O)CCCCCCCCCCCCCCC(=O)N[C@H](CC(=O)N[C@@H](Cc1ccccc1)C(=O)O)C(N)=O)[C@H](C)O)C(=O)NC(CCc1ccccc1)C(N)=O` (some centres undefined) it was 1.3 µM.

In turn, `CC[C@H](C)[C@@H](NC(=O)C(NC(=O)CCCCCCCCCCCCCCC(=O)N[C@H](CC(=O)N[C@@H](Cc1ccccc1)C(=O)O)C(N)=O)C(C)(C)C)C(=O)N[C@@H](Cc1ccccc1)C(N)=O` (some centres undefined) had an IC50 of 7.7 µM. Still for that read-out and setting: under `CCC(C)[C@@H](NC(=O)[C@H](C(C)O)N(C)C(=O)CCCCCCCCCCCCCCC(=O)NC(Cc1ccc(OP(=O)(O)O)cc1)C(=O)N[C@@H](Cc1ccccc1)C(=O)O)C(=O)NC(CO)C(N)=O` (some centres undefined) stands 2.1 µM. Still for that read-out and setting: under `CCC(C)[C@@H](NC(=O)[C@H](C(C)O)N(C)C(=O)CCCCCCCCCCCCCCC(=O)NC(Cc1ccc(N)cc1)C(=O)N[C@@H](Cc1ccccc1)C(=O)O)C(=O)NC(CO)C(N)=O` (some centres undefined) stands 0.0012 µM; under `CCC(C)[C@@H](NC(=O)C(NC(=O)CCCCCCCCCCCCCCC(=O)N[C@H](CC(=O)N[C@@H](Cc1ccccc1)C(=O)O)C(N)=O)c1ccccc1)C(=O)N[C@@H](Cc1ccccc1)C(N)=O` (some centres undefined), 2.1 µM; under `CC[C@H](C)[C@@H](NC(=O)[C@@H](NC(=O)CCCCCCCCCCCCCCC(=O)N[C@H](CC(=O)N[C@@H](Cc1ccccc1)C(=O)O)C(N)=O)[C@H](C)O)C(=O)N[C@@H](Cc1ccc(N)cc1)C(N)=O`, 3.6 µM. Still for that read-out and setting: in the case of `CCC(C)[C@@H](NC(=O)C(Cc1ccc(F)c(F)c1)NC(=O)CCCCCCCCCCCCCCC(=O)N[C@H](CC(=O)N[C@@H](Cc1ccccc1)C(=O)O)C(N)=O)C(=O)N[C@@H](Cc1ccccc1)C(N)=O` (some centres undefined) it was 1.1 µM; in that of `CCCCC(NC(=O)CCCCCCCCCCCCCCC(=O)N[C@H](CC(=O)N[C@@H](Cc1ccccc1)C(=O)O)C(N)=O)C(=O)N[C@@H](C(=O)N[C@@H](Cc1ccccc1)C(N)=O)C(C)CC` (some centres undefined), 1.6 µM.
